# Publication PMC4508061, “Selectivity Profiling and Biological Activity of Novel β-Carbolines as Potent and Selective DYRK1 Kinase Inhibitors” (PLoS ONE, 2015)
# Columns and labels:
# Assay in all cases: ProQinase radiometric kinase panel
# Conditions in all cases: mean of 2 exp.
# ACV-R2A = ACV-R2A (Homo sapiens, UniProt P27037)
# AKT1 = AKT1 (Homo sapiens, UniProt P31749)
# ALK = ALK (Homo sapiens, UniProt Q9UM73)
# ASK1 = ASK1 (Homo sapiens, UniProt Q99683)
# BRK = BRK (Homo sapiens, UniProt Q13882)
# CAMK1D = CAMK1D (Homo sapiens, UniProt Q8IU85)
# CAMK2D = CAMK2D (Homo sapiens, UniProt Q13557)
# CAMKK1 = CAMKK1 (Homo sapiens, UniProt Q8N5S9)
# CDK7/CycH/MAT1 = CDK7/CycH/MAT1 (Homo sapiens, UniProt P50613)
# CDK9/CycT1 = CDK9/CycT1 (Homo sapiens, UniProt P50750)
# CSF1-R = CSF1-R (Homo sapiens, UniProt P07333)
# DCAMKL2 = DCAMKL2 (Homo sapiens, UniProt Q8N568)
# DNA-PK = DNA-PK (Homo sapiens, UniProt P78527)
# EGF-R = EGF-R (Homo sapiens, UniProt P00533)
# EPHA1 = EPHA1 (Homo sapiens, UniProt P21709)
# FAK = FAK (Homo sapiens, UniProt Q05397)
# FLT3 = FLT3 (Homo sapiens, UniProt P36888)
# FRK = FRK (Homo sapiens, UniProt P42685)
# IRAK1 = IRAK1 (Homo sapiens, UniProt P51617)
# MARK1 = MARK1 (Homo sapiens, UniProt Q9P0L2)
# MARK3 = MARK3 (Homo sapiens, UniProt P27448)
# MELK = MELK (Homo sapiens, UniProt Q14680)
# MKNK1 = MKNK1 (Homo sapiens, UniProt Q9BUB5)
# MKNK2 = MKNK2 (Homo sapiens, UniProt Q9HBH9)
# MYLK3 = MYLK3 (Homo sapiens, UniProt Q32MK0)
# NEK6 = NEK6 (Homo sapiens, UniProt Q9HC98)
# NIK = NIK (Homo sapiens, UniProt Q99558)
# PAK6 = PAK6 (Homo sapiens, UniProt Q9NQU5)
# PASK = PASK (Homo sapiens, UniProt Q96RG2)
# PKC-eta = PKC-eta (Homo sapiens, UniProt P24723)
# PLK1 = PLK1 (Homo sapiens, UniProt P53350)
# PYK2 = PYK2 (Homo sapiens, UniProt Q14289)
# SLK = SLK (Homo sapiens, UniProt Q9H2G2)
# SNARK = SNARK (Homo sapiens, UniProt Q9H093)
# STK33 = STK33 (Homo sapiens, UniProt Q9BYT3)
# TAOK3 = TAOK3 (Homo sapiens, UniProt Q9H2K8)
# TLK1 = TLK1 (Homo sapiens, UniProt Q9UKI8)
# WNK2 = WNK2 (Homo sapiens, UniProt Q9Y3S1)
# ZAP70 = ZAP70 (Homo sapiens, UniProt P43403)
# Chain of ZAP70 (P43403 whole entry): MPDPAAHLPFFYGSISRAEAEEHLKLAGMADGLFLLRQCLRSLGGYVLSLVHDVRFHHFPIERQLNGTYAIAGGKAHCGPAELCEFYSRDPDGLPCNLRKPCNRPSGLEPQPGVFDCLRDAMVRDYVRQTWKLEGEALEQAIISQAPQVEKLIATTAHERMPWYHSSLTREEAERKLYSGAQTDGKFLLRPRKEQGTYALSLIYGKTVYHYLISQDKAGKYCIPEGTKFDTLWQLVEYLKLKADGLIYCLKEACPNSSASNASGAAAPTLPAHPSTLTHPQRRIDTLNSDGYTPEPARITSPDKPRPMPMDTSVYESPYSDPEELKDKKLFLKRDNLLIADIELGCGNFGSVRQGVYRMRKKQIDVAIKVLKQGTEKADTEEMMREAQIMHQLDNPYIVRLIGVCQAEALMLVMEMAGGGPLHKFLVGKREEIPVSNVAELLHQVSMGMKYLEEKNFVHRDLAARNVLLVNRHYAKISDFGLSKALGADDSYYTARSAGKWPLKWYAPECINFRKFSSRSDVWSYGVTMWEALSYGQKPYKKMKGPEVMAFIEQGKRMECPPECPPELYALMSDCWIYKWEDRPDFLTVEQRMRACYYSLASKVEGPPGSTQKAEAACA
# Chain of STK33 (Q9BYT3 whole entry): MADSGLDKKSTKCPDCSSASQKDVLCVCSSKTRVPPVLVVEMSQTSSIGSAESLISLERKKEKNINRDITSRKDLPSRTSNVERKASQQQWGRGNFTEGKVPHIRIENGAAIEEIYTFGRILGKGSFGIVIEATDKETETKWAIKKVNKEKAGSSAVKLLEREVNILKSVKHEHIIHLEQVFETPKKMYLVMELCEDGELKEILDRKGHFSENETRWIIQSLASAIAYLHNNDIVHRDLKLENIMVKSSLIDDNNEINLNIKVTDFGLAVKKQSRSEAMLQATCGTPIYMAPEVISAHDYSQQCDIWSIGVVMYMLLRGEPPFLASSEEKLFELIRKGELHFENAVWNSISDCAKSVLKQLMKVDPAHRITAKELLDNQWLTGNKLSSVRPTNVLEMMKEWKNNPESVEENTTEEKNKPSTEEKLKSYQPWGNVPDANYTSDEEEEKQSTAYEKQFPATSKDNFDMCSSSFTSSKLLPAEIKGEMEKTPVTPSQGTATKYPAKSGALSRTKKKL
# Chain of WNK2 (Q9Y3S1 whole entry): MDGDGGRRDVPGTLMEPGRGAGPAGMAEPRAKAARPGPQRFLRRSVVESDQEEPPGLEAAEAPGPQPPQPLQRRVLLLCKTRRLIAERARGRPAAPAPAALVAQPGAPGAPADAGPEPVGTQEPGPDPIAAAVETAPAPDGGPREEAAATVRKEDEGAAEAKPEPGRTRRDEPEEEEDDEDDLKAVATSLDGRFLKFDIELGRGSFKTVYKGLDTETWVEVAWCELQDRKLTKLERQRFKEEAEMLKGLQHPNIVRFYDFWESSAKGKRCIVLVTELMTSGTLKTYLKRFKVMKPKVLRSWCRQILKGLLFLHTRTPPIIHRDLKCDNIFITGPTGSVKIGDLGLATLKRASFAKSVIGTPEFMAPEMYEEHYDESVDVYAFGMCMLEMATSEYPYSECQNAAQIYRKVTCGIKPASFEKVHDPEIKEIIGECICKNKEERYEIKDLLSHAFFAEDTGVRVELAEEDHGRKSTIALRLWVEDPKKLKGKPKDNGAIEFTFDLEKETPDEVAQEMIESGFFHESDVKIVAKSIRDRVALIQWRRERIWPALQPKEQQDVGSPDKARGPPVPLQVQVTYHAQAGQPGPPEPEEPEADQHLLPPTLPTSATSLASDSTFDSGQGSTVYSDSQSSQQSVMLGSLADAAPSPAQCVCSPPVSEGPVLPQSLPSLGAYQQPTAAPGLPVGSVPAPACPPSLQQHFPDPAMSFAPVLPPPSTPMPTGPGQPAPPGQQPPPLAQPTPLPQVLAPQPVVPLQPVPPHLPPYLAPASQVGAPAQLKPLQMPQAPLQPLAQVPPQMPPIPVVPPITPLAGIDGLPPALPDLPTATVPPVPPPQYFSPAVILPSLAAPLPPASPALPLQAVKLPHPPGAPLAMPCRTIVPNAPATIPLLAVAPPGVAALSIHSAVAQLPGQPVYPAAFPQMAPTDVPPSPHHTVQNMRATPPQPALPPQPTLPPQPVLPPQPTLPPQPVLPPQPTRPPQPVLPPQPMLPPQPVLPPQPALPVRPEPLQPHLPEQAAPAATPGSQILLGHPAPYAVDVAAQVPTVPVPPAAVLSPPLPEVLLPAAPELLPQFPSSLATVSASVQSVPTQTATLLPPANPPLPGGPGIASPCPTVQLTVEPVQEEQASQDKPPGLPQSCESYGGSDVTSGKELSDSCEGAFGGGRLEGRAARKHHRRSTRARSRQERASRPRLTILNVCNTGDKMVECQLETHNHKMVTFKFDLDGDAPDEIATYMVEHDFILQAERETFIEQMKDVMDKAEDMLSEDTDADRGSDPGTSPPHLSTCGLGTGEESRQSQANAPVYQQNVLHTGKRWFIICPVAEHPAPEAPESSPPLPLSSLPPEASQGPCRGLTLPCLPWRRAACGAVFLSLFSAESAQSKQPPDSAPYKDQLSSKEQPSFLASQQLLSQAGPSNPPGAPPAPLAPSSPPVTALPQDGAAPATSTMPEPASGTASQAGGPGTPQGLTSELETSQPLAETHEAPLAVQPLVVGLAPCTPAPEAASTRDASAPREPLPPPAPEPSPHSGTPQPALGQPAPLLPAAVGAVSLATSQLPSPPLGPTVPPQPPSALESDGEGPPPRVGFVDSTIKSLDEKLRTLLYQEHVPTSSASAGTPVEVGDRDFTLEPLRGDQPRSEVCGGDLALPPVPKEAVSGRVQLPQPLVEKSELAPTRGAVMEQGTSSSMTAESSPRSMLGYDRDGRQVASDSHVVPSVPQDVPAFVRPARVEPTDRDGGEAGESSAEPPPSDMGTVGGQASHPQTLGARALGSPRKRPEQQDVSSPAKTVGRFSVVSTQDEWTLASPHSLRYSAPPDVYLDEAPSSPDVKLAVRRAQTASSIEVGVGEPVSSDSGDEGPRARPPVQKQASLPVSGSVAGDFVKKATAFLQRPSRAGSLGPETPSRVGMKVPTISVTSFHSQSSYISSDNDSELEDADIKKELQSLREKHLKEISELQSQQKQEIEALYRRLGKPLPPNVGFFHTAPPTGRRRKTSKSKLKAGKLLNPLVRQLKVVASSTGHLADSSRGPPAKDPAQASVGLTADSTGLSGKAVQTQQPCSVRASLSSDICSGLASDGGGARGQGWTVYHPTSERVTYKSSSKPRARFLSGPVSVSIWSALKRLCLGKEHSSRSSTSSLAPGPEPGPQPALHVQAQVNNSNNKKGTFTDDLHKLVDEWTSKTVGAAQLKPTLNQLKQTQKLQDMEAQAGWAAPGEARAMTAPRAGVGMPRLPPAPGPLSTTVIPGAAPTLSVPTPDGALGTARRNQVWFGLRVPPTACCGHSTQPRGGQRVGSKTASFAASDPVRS
# Chain of PYK2 (Q14289 whole entry): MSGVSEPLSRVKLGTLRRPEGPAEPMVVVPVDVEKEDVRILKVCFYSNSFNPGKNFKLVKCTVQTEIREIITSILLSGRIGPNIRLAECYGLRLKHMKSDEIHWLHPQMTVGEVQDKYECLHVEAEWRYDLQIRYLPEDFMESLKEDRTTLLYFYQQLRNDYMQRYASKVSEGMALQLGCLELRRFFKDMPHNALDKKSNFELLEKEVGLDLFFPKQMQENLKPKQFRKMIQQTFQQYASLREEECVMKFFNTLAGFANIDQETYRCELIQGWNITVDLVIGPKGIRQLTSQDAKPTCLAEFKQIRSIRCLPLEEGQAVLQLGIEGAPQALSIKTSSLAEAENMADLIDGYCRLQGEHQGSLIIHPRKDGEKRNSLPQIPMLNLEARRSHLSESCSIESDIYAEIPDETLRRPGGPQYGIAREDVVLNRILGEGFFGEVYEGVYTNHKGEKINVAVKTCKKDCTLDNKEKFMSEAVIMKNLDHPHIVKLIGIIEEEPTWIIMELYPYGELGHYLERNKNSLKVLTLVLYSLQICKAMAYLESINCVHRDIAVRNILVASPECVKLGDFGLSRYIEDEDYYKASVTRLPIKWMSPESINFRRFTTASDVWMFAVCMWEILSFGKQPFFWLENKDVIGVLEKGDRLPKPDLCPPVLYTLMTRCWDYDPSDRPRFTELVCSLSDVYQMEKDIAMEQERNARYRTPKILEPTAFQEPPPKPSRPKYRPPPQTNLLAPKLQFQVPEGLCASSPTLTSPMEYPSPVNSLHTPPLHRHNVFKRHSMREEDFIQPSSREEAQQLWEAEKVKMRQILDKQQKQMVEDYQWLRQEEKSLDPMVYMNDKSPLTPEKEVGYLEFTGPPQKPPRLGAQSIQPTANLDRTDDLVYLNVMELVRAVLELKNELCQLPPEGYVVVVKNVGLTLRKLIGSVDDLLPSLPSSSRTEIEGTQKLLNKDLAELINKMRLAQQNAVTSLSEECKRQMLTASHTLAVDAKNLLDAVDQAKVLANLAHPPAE
# Chain of CAMK1D (Q8IU85 whole entry): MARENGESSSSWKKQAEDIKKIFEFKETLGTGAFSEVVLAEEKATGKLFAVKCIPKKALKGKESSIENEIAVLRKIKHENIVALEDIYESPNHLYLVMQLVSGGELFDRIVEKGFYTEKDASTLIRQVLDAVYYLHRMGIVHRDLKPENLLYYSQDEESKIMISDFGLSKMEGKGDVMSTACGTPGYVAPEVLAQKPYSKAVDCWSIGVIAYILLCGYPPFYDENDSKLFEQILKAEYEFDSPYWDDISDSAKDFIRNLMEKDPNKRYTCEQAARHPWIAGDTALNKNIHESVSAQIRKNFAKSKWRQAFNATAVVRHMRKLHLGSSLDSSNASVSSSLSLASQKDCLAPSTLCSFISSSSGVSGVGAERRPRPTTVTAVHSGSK
smiles,measurement,setting,value
COc1ccc2c3ccnc(Cl)c3n(CC#N)c2c1 [AnnH75],"residual activity at 1 µM, Mean",ACV-R2A,97 % of control
same,"residual activity at 1 µM, Mean",AKT1,102 % of control
same,"residual activity at 1 µM, Mean",ALK,98 % of control
same,"residual activity at 1 µM, Mean",ASK1,104 % of control
same,"residual activity at 1 µM, Mean",BRK,97 % of control
same,"residual activity at 1 µM, Mean",CAMK1D,102 % of control
same,"residual activity at 1 µM, Mean",CAMK2D,87 % of control
same,"residual activity at 1 µM, Mean",CAMKK1,89 % of control
same,"residual activity at 1 µM, Mean",CDK7/CycH/MAT1,100 % of control
same,"residual activity at 1 µM, Mean",CDK9/CycT1,85 % of control
same,"residual activity at 1 µM, Mean",CSF1-R,106 % of control
same,"residual activity at 1 µM, Mean",DCAMKL2,97 % of control
same,"residual activity at 1 µM, Mean",DNA-PK,63 % of control
same,"residual activity at 1 µM, Mean",EGF-R,104 % of control
same,"residual activity at 1 µM, Mean",EPHA1,92 % of control
same,"residual activity at 1 µM, Mean",FAK,103 % of control
same,"residual activity at 1 µM, Mean",FLT3,70 % of control
same,"residual activity at 1 µM, Mean",FRK,94 % of control
same,"residual activity at 1 µM, Mean",IRAK1,95 % of control
same,"residual activity at 1 µM, Mean",MARK1,101 % of control
same,"residual activity at 1 µM, Mean",MARK3,100 % of control
same,"residual activity at 1 µM, Mean",MELK,87 % of control
same,"residual activity at 1 µM, Mean",MKNK1,103 % of control
same,"residual activity at 1 µM, Mean",MKNK2,92 % of control
same,"residual activity at 1 µM, Mean",MYLK3,94 % of control
same,"residual activity at 1 µM, Mean",NEK6,104 % of control
same,"residual activity at 1 µM, Mean",NIK,87 % of control
same,"residual activity at 1 µM, Mean",PAK6,93 % of control
same,"residual activity at 1 µM, Mean",PASK,74 % of control
same,"residual activity at 1 µM, Mean",PKC-eta,79 % of control
same,"residual activity at 1 µM, Mean",PLK1,93 % of control
same,"residual activity at 1 µM, Mean",PYK2,110 % of control
same,"residual activity at 1 µM, Mean",SLK,99 % of control
same,"residual activity at 1 µM, Mean",SNARK,95 % of control
same,"residual activity at 1 µM, Mean",STK33,87 % of control
same,"residual activity at 1 µM, Mean",TAOK3,103 % of control
same,"residual activity at 1 µM, Mean",TLK1,91 % of control
same,"residual activity at 1 µM, Mean",WNK2,98 % of control
same,"residual activity at 1 µM, Mean",ZAP70,97 % of control
